From patent US20250375419A1, “NOVEL RAS INHIBITORS” (KHR Biotec GmbH, priority 2022, published 2025)

Tests used:
Type in all cases: cell-based
[1] = system: HT1080; experiment: Soft agar colony formation assay, colonies stained with MTT; conditions: Homo sapiens, HT-1080; HT1080, growth in soft agar, MTT absorbance 570 nm, 3 independent experiments
Description: (§1) Metabolic activity was quantified using Cell Proliferation Kit I (Roche, Basel, Switzerland). Cells were seeded in 96-well cell culture plates, using 5000 cells per well for NCI-H358 cells. After treatment, 10 μl of MTT solution was added and incubated for 2 h in CO2 incubator. Then 100 μl of solubilization buffer was added to each well and incubated overnight in CO2 incubator. Cell viability, assessed by the amount of metabolized MTT, was quantified by measuring absorbance at 570 nm.
(§2) MTT assay for the growth of different tumour cell lines with RAS mutations in soft agar with Tegaserode maleate.
(§3) NCI-H358, H358, H2122, ASPC-1, HCT-116, T24 and HT1080 cells were used for the soft agar colony formation assay. After the treatment with Tegaserode maleate, the colonies were stained with MTT and the value was quantified by measuring absorbance at 570 nm after solubilization. The results represent mean±SEM from 3 independent experiments.

[2] = system: ASPC1; experiment: as above; conditions: Homo sapiens; ASPC1, growth in soft agar, MTT absorbance 570 nm, 3 independent experiments
Description: as §1, §2, §3

[3] = system: T24; experiment: as above; conditions: Homo sapiens, T-24; T24, growth in soft agar, MTT absorbance 570 nm, 3 independent experiments
Description: as §1, §2, §3

[4] = system: NCI-H358; experiment: as above; conditions: Homo sapiens; NCI-H358, growth in soft agar, MTT absorbance 570 nm, 3 independent experiments
Description: as §1, §2, §3

[5] = system: HCT-116; experiment: as above; conditions: Homo sapiens; HCT-116, growth in soft agar, MTT absorbance 570 nm, 3 independent experiments
Description: as §1, §2, §3

[6] = system: NCI-H2122; experiment: as above; conditions: Homo sapiens; NCI-H2122, growth in soft agar, MTT absorbance 570 nm, 3 independent experiments
Description: as §1, §2, §3

[7] = system: RAS protein of RASOpathie; experiment: RASOpathie-Model; MTT assay for cell viability in 96 well cell culture plate; conditions: 48 h treatment
Description: FIG. 4: RASOpathie-Model of Tegaserode maleate; MTT assay for cell viability in 96 well cell culture plate
Cells were treated with Tegaserode maleate for 48 h and cell viability was evaluated by MTT assay. DMSO-treated cells were set as 1. The results shown are mean±SEM from 3 independent experiments.

[8] = system: KRAS dependent cells; experiment: MTT assay for cell viability, KRAS dependent cells (FIG. 3a); conditions: irrespective of the presence of mutation, 48 h
Description: (§4) FIGS. 3a) und 3b): MTT assay for cell viability in 96 well cell culture plate Cells were treated with compounds for 48 h and cell viability was evaluated by MTT assay. The results shown are mean from 3 independent experiments. DMSO-treated cells were set as 1. The results shown are mean±SEM from 1-3 independent experiments.
(§5) G12C/Y96D mutation is normally seen in patients, who develop resistance to G12C inhibitor. Thus, patients, who are resistant to G12C inhibitors can still be treated with Tegaserode maleate.

[9] = system: BaF3 KRAS G12C; experiment: MTT assay for cell viability in 96 well cell culture plate; conditions: Mus musculus, 48 h treatment
Description: as §1, §4, §5

[10] = system: BaF3 KRAS G12C/Y96D; experiment: as above; conditions: Mus musculus, 48 h treatment
Description: as §1, §4, §5

With `CCCCCNC(=N)N/N=C/c1c[nH]c2ccc(OC)cc12.O=C(O)/C=C\C(=O)O` [Tegaserode maleate, 2-[(5-Methoxy-1H-indol-3-yl)methylene]-N-pentyl-hydrazinecarboximidamide maleate] the IC50 [1] was 2.43 µM, the IC50 [2] was 4.76 µM and the IC50 [3] was 11.3 µM. It also gave an IC50 [4] of 5.39 µM, an IC50 [5] of 3.12 µM and an IC50 [6] of 3.37 µM. The “inhibition of RAS protein of RASOpathie (cell viability)” value [7] was “inhibits RAS protein of RASOpathie”, the “inhibition of KRAS dependent cells” value [8] was “inhibits KRAS dependent cells irrespective of the presence of mutation” and the IC50 [9] was 10.2 µM. The IC50 [10] was 2.86 µM.
